Data reported in PubChem BioAssay (NCI).
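Protocol summary: plate cells (96-well), add compound at 5 concentrations, incubate 48 h, interpolate endpoints linearly. Here, GI50 denotes the concentration required for 50% inhibition of growth. TGI is the concentration that stops growth completely.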

What was measured:
Assay in all cases: inhibition of tumour cell growth, NCI panel, 48 h; in the data active means GI50 below about 0.43 µM; inactive means the rest
[1] = tested on: A498 renal
[2] = tested on: OVCAR-8 ovarian
[3] = tested on: SK-MEL-2 melanoma
[4] = tested on: HCC-2998 colon
[5] = tested on: T-47D breast
[6] = tested on: MALME-3M melanoma
[7] = tested on: UO-31 renal
[8] = tested on: A549 NSCLC
[9] = tested on: HOP-92 NSCLC
[10] = tested on: SNB-19 CNS
[11] = tested on: LOX IMVI melanoma
[12] = tested on: NCI-H522 lung
[13] = tested on: NCI-H226 lung
[14] = tested on: K-562 leukemia
[15] = tested on: IGROV1 ovarian
[16] = tested on: HS 578T breast
[17] = tested on: OVCAR-3 ovarian
[18] = tested on: RPMI-8226 leukemia
[19] = tested on: SR leukemia
[20] = tested on: SF-539 CNS
[21] = tested on: MCF7 breast
[22] = tested on: SK-OV-3 ovarian
[23] = tested on: NCI-H460 lung
[24] = tested on: SN12C renal
[25] = tested on: BT-549 breast
[26] = tested on: CAKI-1 renal
[27] = tested on: RXF 393 renal
[28] = tested on: SF-295 CNS
[29] = tested on: HCT-116 colon
[30] = tested on: KM12 colon
[31] = tested on: TK-10 renal
[32] = tested on: UACC-62 melanoma
[33] = tested on: M14 melanoma
[34] = tested on: 786-0 renal
[35] = tested on: MDA-MB-435
[36] = tested on: COLO 205 colon
[37] = tested on: OVCAR-5 ovarian
[38] = tested on: CCRF-CEM leukemia
[39] = tested on: DU-145 prostate
[40] = tested on: ACHN renal
[41] = tested on: SK-MEL-5 melanoma
[42] = tested on: OVCAR-4 ovarian
[43] = tested on: UACC-257 melanoma
[44] = tested on: HL-60(TB) leukemia
[45] = tested on: SW-620 colon
[46] = tested on: SK-MEL-28 melanoma
[47] = tested on: U251 CNS
[48] = tested on: PC-3 prostate
[49] = tested on: MOLT-4 leukemia
[50] = tested on: EKVX NSCLC
[51] = tested on: MDA-MB-231 breast
[52] = tested on: NCI/ADR-RES ovarian
[53] = tested on: HT29 colon
[54] = tested on: HOP-62 NSCLC
[55] = tested on: HCT-15 colon
[56] = tested on: SF-268 CNS
[57] = tested on: SNB-75 CNS

CCNC(=O)N1CCc2cc(OC)c(OCCc3ccc(OC)cc3)cc2C1c1ccc(Cl)cc1C (centres undefined)
> 100 µM: TGI [2] | TGI [5] | TGI [6] | TGI [7] | TGI [8] | TGI [10] | TGI [14] | TGI [15] | TGI [17] | TGI [21] | TGI [22] | TGI [29] | TGI [31] | TGI [33] | TGI [34] | TGI [37] | TGI [38] | TGI [39] | TGI [40] | TGI [42] | TGI [43] | TGI [45] | TGI [46] | TGI [48] | TGI [49] | TGI [50] | TGI [51] | TGI [54] | TGI [55] | TGI [56]
> 50.1 µM: TGI [26]
> 21.6 µM: TGI [27]
5.94 µM: TGI [36]
3.16 µM: TGI [20]
2.95 µM: TGI [12]
> 24.2 µM: TGI [1]
> 21.4 µM: TGI [9]
> 25 µM: TGI [24]
1.77 µM: TGI [11]
active: GI50 [11] 0.186 µM | GI50 [14] 0.0924 µM | GI50 [18] 0.403 µM | GI50 [19] 0.0961 µM | GI50 [20] 0.41 µM | GI50 [21] 0.422 µM | GI50 [23] 0.1 µM | GI50 [29] 0.0866 µM | GI50 [34] 0.421 µM | GI50 [38] 0.382 µM | GI50 [48] 0.217 µM | GI50 [49] 0.338 µM | GI50 [55] 0.0853 µM
> 23.7 µM: TGI [3]
> 33.3 µM: TGI [4]
4.57 µM: TGI [25]
8.99 µM: TGI [16]
5.82 µM: TGI [35]
3.3 µM: TGI [19]
5.81 µM: TGI [52]
2.31 µM: TGI [41]
7.06 µM: TGI [13]
12.7 µM: TGI [28]
> 31.4 µM: TGI [30]
> 40.1 µM: TGI [47]
3.97 µM: TGI [44]
6.44 µM: TGI [32]
3.14 µM: TGI [53]
2.25 µM: TGI [23]
6.3 µM: TGI [57]
inactive: GI50 [1] 4.02 µM | GI50 [2] 0.669 µM | GI50 [3] 3.52 µM | GI50 [4] 1.27 µM | GI50 [5] 1.84 µM | GI50 [6] 3.65 µM | GI50 [7] 0.932 µM | GI50 [8] 0.735 µM | GI50 [9] 1.48 µM | GI50 [10] 0.683 µM | GI50 [12] 0.7 µM | GI50 [13] 1.89 µM | GI50 [15] 0.607 µM | GI50 [16] 1.7 µM | GI50 [17] 1.04 µM | GI50 [22] 2.11 µM | GI50 [24] 1.02 µM | GI50 [25] 1.06 µM | GI50 [26] 0.736 µM | GI50 [27] 1.45 µM | GI50 [28] 0.711 µM | GI50 [30] 1.38 µM | GI50 [31] 3.52 µM | GI50 [32] 0.532 µM | GI50 [33] 0.726 µM | GI50 [35] 0.66 µM | GI50 [36] 1.02 µM | GI50 [37] 1.86 µM | GI50 [39] 0.83 µM | GI50 [40] 0.676 µM | GI50 [41] 0.67 µM | GI50 [42] 2.58 µM | GI50 [43] 2.31 µM | GI50 [44] 0.643 µM | GI50 [45] 0.568 µM | GI50 [46] 0.943 µM | GI50 [47] 0.479 µM | GI50 [50] 4.09 µM | GI50 [51] 0.801 µM | GI50 [52] 0.735 µM | GI50 [53] 0.444 µM | GI50 [54] 0.958 µM | GI50 [56] 1.03 µM | GI50 [57] 0.456 µM
3.95 µM: TGI [18]
